From PubChem BioAssay AID1996
In brackets after ≈: the same amount, converted by molar mass.

details: buffer; pH 7.4; 200.0 µM

| SMILES | solubility kinetic [µg/mL] |
| --- | --- |
| CCCn1c(N)c(C(=O)CN2CCc3ccccc3C2)c(=O)n(C)c1=O | > 53.5 |
| Cc1ccc(-c2c[n+](CC(=O)Nc3ccccc3)c3n2CCC3)cc1.[Cl-] | > 55.2 |
| C=Cn1cc[n+](CC(=O)c2ccc(Br)s2)c1.[Br-] | 53 |
| COc1cccc(/C=C/C(=O)Nc2cccc(C(C)=O)c2)c1OC | 4.3 (≈ 13.2 µM) |
| COCC(=O)Nc1ccc(Br)cc1C | 35.8 (≈ 139 µM) |
| CCC(C)c1ccc(NC(=O)C2CC3CCC2C3)cc1 (stereo not drawn) | 1.3 (≈ 4.79 µM) |
| OC1/C(=C/c2ccc(C(F)(F)F)cc2)N2CCC1CC2 (stereo not drawn) | 41.5 (≈ 146 µM) |
| O=C(CSC(=S)N1CCCC1)NCCc1ccccc1 | > 46.3 |
| O/N=C/c1ccc2cccc(OCc3ccccc3)c2n1 | 2.1 (≈ 7.55 µM) |
| COc1ccccc1C1C(C(C)=O)=C(O)C(=O)N1c1ccc(O)cc1 (stereo not drawn) | > 50.9 |
| CCOC(=O)C1=C(C)N(C)C(C)=C(C(=O)OCC)C1c1ccsc1 | 2 (≈ 5.72 µM) |
| O=[N+]([O-])c1ccc(-c2ccc(/C=N/O)o2)cc1 | 8 (≈ 34.5 µM) |
| COc1ccc(NC(=O)CS(=O)(=O)c2ccccc2Cl)cc1 | 43.8 (≈ 129 µM) |
| CCn1c(=S)[nH]c2sc3c(c2c1=O)CCCC3 | 9.2 (≈ 34.5 µM) |
| O=C1CCCN1CCC1CCCCN1Cc1nc(-c2cnccn2)no1 (stereo not drawn) | > 53.5 |
| COC(=O)c1c(NC(=O)CCCC(=O)O)sc2c1CCCCC2 | > 50.9 |
| COC(=O)[C@H](CCSC)NC(=O)Nc1cccc(C)c1C | 37.1 (≈ 120 µM) |
| CCOc1ccccc1Nc1cc(C)nc2ccc(C)cc12 | > 43.9 |
| O=c1[nH]c(CSc2cccc[n+]2[O-])nc2ccccc12 | > 42.8 |
| Cc1ccc(NC(=O)C2CCN(C(=O)c3ccco3)CC2)cc1C | 45.1 (≈ 138 µM) |
| CCNC(=O)CC1C(=O)N(c2cccc(C)c2)C(=O)N1CCC(C)C (stereo not drawn) | > 51.8 |
| CC(C)CCN1CCN(C/C=C/c2ccco2)CC1CCO (stereo not drawn) | 45.3 (≈ 148 µM) |
| CC(=O)C(Cc1ccccc1)NC(=O)COC(=O)c1cccc(C)c1[N+](=O)[O-] (stereo not drawn) | > 57.7 |
| CN1CCN(S(=O)(=O)c2cccc(C(=O)O)c2)CC1 | 42 (≈ 148 µM) |

| SMILES | solubility kinetic [µg/mL] |
| --- | --- |
| Cc1ccc(C(=O)N2CCN(c3ccccn3)CC2)cc1C | > 44.3 |
| O=C1/C(=C/c2ccncc2)N2CCC1CC2 | > 32.1 |
| CCc1ccc(NC(=O)c2cnccn2)cc1 | 21.4 (≈ 94.2 µM) |
| CCOC(=O)C1=C(N)Oc2cc(O)ccc2C1c1cccc(Cl)c1 (stereo not drawn) | < 0.7 |
| Cc1ccnc(SCC(=O)Nc2cccc(S(=O)(=O)N3CCOCC3)c2)n1 | > 61.3 |
| COc1ccc(C(=O)COC(=O)C2CCC(=O)N2)cc1 (stereo not drawn) | > 41.6 |
| O=C(NCCc1c[nH]c2ccccc12)c1ccc(Cl)cc1 | 5.2 (≈ 17.4 µM) |
| C[C@@H]1NC(=O)N[C@@H]1CCCCCC(=O)O | > 32.1 |
| COC(=O)c1cc(C(=O)c2ccc(C(C)(C)C)cc2)c[nH]1 | 18.2 (≈ 63.8 µM) |
| COC(=O)c1c(C)nc(C)c(C(=O)OC)c1-c1ccc(OC)cc1 | > 49.4 |
| Cc1ccc(C(=O)NCC(=O)N(C)Cc2cccc(F)c2)s1 | > 48.1 |
| CCOC(=O)c1cc(NC(=O)c2cccs2)ccc1N1CCOCC1 | 14.8 (≈ 41.1 µM) |
| CC1(C)C2C/C(=N\O)C(C)(/[N+]([O-])=C/c3cccc([N+](=O)[O-])c3)CC21 (stereo not drawn) | 45.2 (≈ 136 µM) |
| O=C(CSc1cccc[n+]1[O-])NC1CCCCC1 | > 40 |
| CC1(C)C(=O)Nc2ccccc2N1C(=O)c1ccc([N+](=O)[O-])cc1 | 2.3 (≈ 7.07 µM) |
| CN(C)c1ccc(C(=O)OCC(=O)Nc2cccc(S(=O)(=O)N3CCCC3)c2)cc1 | 5.5 (≈ 12.7 µM) |
| Cc1ccc(NC(=O)NCCCCc2ccccc2)cc1 | < 0.3 |
| CCN(CC)C(=O)Cn1c(=O)oc2ccccc21 | > 37.2 |
| O=[N+]([O-])c1ccc(Cl)c([N+](=O)[O-])c1 | 13.8 (≈ 68.1 µM) |
| CCCC(=O)OCC(=O)Nc1ccc2c(c1)OCO2 | 37.2 (≈ 140 µM) |
| Cc1ccc(N=CNc2ccc(C)cc2C)c(C)c1 | 35.2 (≈ 139 µM) |
| COc1cc2c(cc1OC)CN(C(=O)c1ccco1)CC2 | > 43.1 |
| O=C(NCCc1ccc(Cl)cc1)c1ccc2c(c1)OCCO2 | 0.8 (≈ 2.52 µM) |
| O=C(c1ccc([N+](=O)[O-])s1)N1CCN(c2ccccn2)CC1 | 42.7 (≈ 134 µM) |

| SMILES | solubility kinetic [µg/mL] |
| --- | --- |
| CCc1cc(=O)[nH]c(SCC(=O)N2CCCC2)n1 | > 40.1 |
| CCCCn1c2c(c(=N)c3ccccc31)CCC2.I | > 55.2 |
| CNC(=O)c1cc2cc(Cc3ccccc3Cl)ccc2oc1=O | < 0.7 |
| CC(C)c1ccc(C(O)c2nc3ccccc3n2C)cc1 (stereo not drawn) | 10.3 (≈ 36.7 µM) |
| CN(C(=O)c1ccccc1OCc1ccc(Cl)cc1)c1ccccc1 | 10.7 (≈ 30.4 µM) |
| CC(C)(C)C(=O)Nc1cc2c3c(c1)CCN3C(=O)CC2 | > 40.9 |
| Cc1ccccc1OCCn1c(=S)[nH]c2ccccc21 | 0.5 (≈ 1.76 µM) |
| COc1ccc(C(=O)NC2=Nc3ccccc3N=C(C)C2c2ccccc2)cc1 (stereo not drawn) | 22.6 (≈ 58.9 µM) |
| CCc1ccccc1NC(=S)N(CCN(C)C)Cc1cccs1 | 45.6 (≈ 131 µM) |
| Cc1ccc(C(=O)NC(=S)N(C)C2CCCCC2)cc1Br | 1.1 (≈ 2.98 µM) |
| Cc1cc(C)n2nc(SCC(=O)N3CCCC(C)C3)nc2n1 (stereo not drawn) | > 47.9 |
| CN(CC(=O)Nc1ccc(S(N)(=O)=O)cc1)C1CCCCC1 | > 48.8 |
| S=c1[nH]c(-c2ccccc2)cn1-c1ccccc1 | 14.9 (≈ 59 µM) |
| CCOc1ccccc1NS(=O)(=O)c1cn(C)c(=O)n(C)c1=O | 34.4 (≈ 101 µM) |
| COc1ccccc1CNC(=O)COC(=O)c1ccc(C(=O)c2ccccc2)cc1 | 8.2 (≈ 20.3 µM) |
| CCOC(=O)CN/C=C(\C#N)c1ccc(F)cc1 | 36.4 (≈ 147 µM) |
| Cc1nc(S(=O)(=O)Nc2ccc3c(c2)OCCO3)cn1C | 13.1 (≈ 42.3 µM) |
| Cc1ccnc(SC2CC(=O)N(c3ccc(Br)cc3)C2=O)n1 (stereo not drawn) | 44.1 (≈ 117 µM) |
| O=C(CNC(=O)[C@@H]1Cc2ccccc2CN1)NC1CCCCC1 | > 47.3 |
| Cc1ccc(NC(=O)NCc2cccnc2)cc1 | > 36.2 |
| CCC(C)c1ccc(NC(=O)NCc2cccnc2)cc1 (stereo not drawn) | 41 (≈ 145 µM) |
| Cn1nc(C(C)(C)C)c([N+](=O)[O-])c1C(=O)N1CCOCC1 | > 44.4 |
| O=C(CCC(=O)c1ccc(Cl)s1)Nc1ncccc1O | > 46.6 |
| Cc1noc(C)c1COc1ncnc2ccccc12 | > 38.3 |

| SMILES | solubility kinetic [µg/mL] |
| --- | --- |
| CC1(C)NC(=O)N(CC(=O)N2CCC(Cc3ccccc3)CC2)C1=O | 50.1 (≈ 146 µM) |
| O=C(NCc1ccccn1)C(=O)Nc1ccccc1 | > 38.3 |
| O=C(O)CCn1c(-c2ccccc2)cc2ccccc21 | 35.7 (≈ 135 µM) |
| CC1CN(C(=O)COC(=O)/C=C/c2cccc([N+](=O)[O-])c2)CC(C)O1 (stereo not drawn) | 34.2 (≈ 98.2 µM) |
| CC1CCC2(CC1)NC(=O)N(CC(=O)NCCc1ccccc1)C2=O (stereo not drawn) | > 51.5 |
| Cc1ccc(NC(=O)CCNC(=O)c2ccco2)cc1Cl | 20.3 (≈ 66.2 µM) |
| CC(C)(C)c1ccc(/C=C2/SC(N3CCCC3)=NC2=O)cc1 | 15.4 (≈ 49 µM) |
| CCN(CC)C(=O)c1ccc(-c2nnc(OC)c3ccccc23)cc1 | > 50.3 |
| O=C(CSc1nncs1)NC1CCCCCCC1 | > 42.8 |
| CN(Cc1ccccc1)C(=O)COC(=O)COc1ccc(Cl)cc1 | 2.9 (≈ 8.34 µM) |
| FC(F)(F)C1=Nc2cccc3cccc(c23)N1 | 13.5 (≈ 57.2 µM) |
| O=C1CC(N2CCC(c3nc4ccccc4o3)CC2)C(=O)N1 (stereo not drawn) | 43.1 (≈ 144 µM) |
| CCN(CC)c1ccc(NC(=O)CCCCC(=O)Nc2ccc(N(CC)CC)cc2)cc1 | 0.4 (≈ 0.912 µM) |
| O=C(/C=C/c1ccccc1)OCC(=O)N1CCCC1 | > 38.9 |
| Cc1cc(NS(=O)(=O)c2ccc3c(c2)OCCO3)no1 | 31.2 (≈ 105 µM) |
| CCC(=O)Nc1ccc(Cl)c(-c2nc3ncccc3o2)c1 | > 45.3 |
| COc1ccc(CN2C(=O)c3cccc4cccc(c34)C2=O)cc1 | 0.9 (≈ 2.84 µM) |
| COc1cccc(NC(=O)C(C)N2C(=O)c3ccccc3C2=O)c1 (stereo not drawn) | 27.3 (≈ 84.2 µM) |
| Cc1ccc(C)c(NC(=O)C2CC(O)CN2C(=O)Oc2ccccc2)c1 (stereo not drawn) | 45.4 (≈ 128 µM) |
| Cc1cccc(N(C)S(=O)(=O)c2csc(C(N)=O)c2)c1 | > 46.6 |
| O=C(c1ccccc1)N1CCN(S(=O)(=O)N2CCOCC2)CC1 | 46 (≈ 136 µM) |
| CC1(C)SC[C@H](C(=O)Nc2cccc(Cl)c2)N1C=O | > 44.8 |
| CN(CC(=O)Nc1cccc(F)c1)C(=O)CC1CCCC1 | > 43.9 |
| Nc1c(C(=O)Nc2ccccc2)sc2ncc([N+](=O)[O-])cc12 | < 0.2 |

| SMILES | solubility kinetic [µg/mL] |
| --- | --- |
| Cc1cc(C=C2C(=O)NC(=O)NC2=O)c(C)n1-c1cccnc1 | 10.6 (≈ 34.2 µM) |
| C=CCN1C(=O)C2(OCCCO2)c2cc(Cl)ccc21 | 33.7 (≈ 120 µM) |
| CCn1c(C)c(C)c2cc(C(=O)N3CCCC3)ccc21 | > 40.6 |
| COc1ccccc1C1CCN(C(=O)c2ccc(Cl)cc2)CC1 | 17 (≈ 51.5 µM) |
| COc1cccc(OC)c1C(=O)NCCc1ccccc1 | > 42.8 |
| Cc1cc(C)n2nc(C(=O)OCC(=O)c3ccccc3)nc2n1 | > 46.5 |
| CCOc1ccccc1NC(=O)c1ccc(CN2CCc3ccccc3C2)cc1 | 2.3 (≈ 5.95 µM) |
| COc1cc2c(cc1OC)CN(C(=O)CCOc1ccccc1)CC2 | 30.3 (≈ 88.8 µM) |
| CCOc1ccc(-n2cnc3sc4c(c3c2=O)CCCC4)cc1 | 0.8 (≈ 2.45 µM) |
| Cc1cc(S(=O)(=O)NCCCN2CCOCC2)c(Cl)cc1Cl | 42.6 (≈ 116 µM) |
| COc1ccc(/C=C/C(=O)Nc2cccnc2Cl)cc1 | 8.9 (≈ 30.8 µM) |
| CCN(CC)CCN(C(=O)/C=C/c1cccs1)c1nc2ccc(Cl)cc2s1.Cl | < 0.3 |
| CN(CC(=O)Nc1cccnc1Cl)S(=O)(=O)c1ccc(Cl)cc1 | 24.9 (≈ 66.5 µM) |
| COc1ccc(CNc2ccc(C)c(C)c2)cc1 | 1.5 (≈ 6.22 µM) |
| CC(=O)Nc1ccc(-n2c(C)ccc2C)cc1 | > 34.2 |
| Cc1ccc(NC(=O)CCc2ccc(S(=O)(=O)N3CCOCC3)cc2)c(Cl)c1 | 6.1 (≈ 14.4 µM) |
| Cc1nc2ccccn2c1-c1ccnc(SCc2ccc(Cl)cc2)n1 | < 0.2 |
| O=C(c1cc([N+](=O)[O-])cc([N+](=O)[O-])c1)N1CCN(C(=O)c2ccco2)CC1 | 54 (≈ 144 µM) |
| C/C(=C/c1ccccc1)C(=O)N1CCN(c2ccccc2F)CC1 | 35.6 (≈ 110 µM) |
| Cn1c(=O)n(Cc2ccccc2Cl)c2ccccc21 | > 40.9 |
| O=[N+]([O-])c1cccc(CN2CCN(c3cccc4[nH]ccc34)CC2)c1 | 44 (≈ 131 µM) |
| C[n+]1cn(Cc2ccc(C#N)cc2)c2ccccc21.[Cl-] | 39.4 |
